Some test systems named below: OVCAR-4; KM12; HCT-116; HCT-15; SF-295; T47D; PC-3; SW-620; HL-60; NCI/ADR-RES; BT-549; UACC-257; SK-OV-3; U-251; MDA-MB-231; OVCAR-5; ACHN; SNB-19; SF-539; NCI-H23.
What all share (experiment): growth of human tumour cells (NCI), 48 h

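Interpolation was linear, between the two tested concentrations surrounding the appropriate level; five concentrations were tested over 48 hours in 96-well plates. GI50 is the concentration that inhibits growth by half.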 Activity calls are given as the source filed them. Cut-off read from the data, not from the text of the source: active = GI50 up to about 1.1 µM and inactive = higher. A value given as a limit tells only on which side of the number the result lay.

`N=C(N)NS(=O)(=O)c1ccc(NC(=O)c2ccc3nc4ccccc4c(Nc4ccc(S(=O)(=O)N=C(N)N)cc4)c3c2)cc1`: the GI50 in the experiment with OVCAR-4 is > 100 µM (inactive); with KM12, > 100 µM (inactive); in the experiment with HCT-116, > 100 µM (inactive); with HCT-15, above 100 µM; in the experiment on SF-295, > 100 µM (inactive); in the experiment on T47D, > 100 µM (inactive). Besides, the GI50 in the experiment with PC-3, with SW-620, in the experiment on HL-60, in the experiment on NCI/ADR-RES, in the experiment with BT-549 and with UACC-257 was > 100 µM (inactive) in each case. For the same compound, the GI50 in the experiment with SK-OV-3, with U-251, in the experiment with MDA-MB-231, with OVCAR-5, with ACHN and in the experiment with SNB-19 was > 100 µM (inactive) each time. Besides, the GI50 in the experiment with SF-539 and with NCI-H23 was > 100 µM (inactive) in each case.

For the compound `CC(C)(C)c1cc(C(C)(C)C)c2c(c1O)OC(=O)CS2`, the GI50 with OVCAR-4 is 5.28 µM (inactive); with KM12 it was 4.44 µM (inactive); in the experiment with HCT-116, 3.6 µM (inactive); with HCT-15, 3.66 µM; in the experiment with SF-295 it was 4.26 µM (inactive); with T47D, 4.56 µM (inactive). In addition, the GI50 in the experiment on PC-3 is 7.24 µM (inactive); in the experiment with SW-620, 6.52 µM (inactive); in the experiment on HL-60, 3.62 µM (inactive); in the experiment with NCI/ADR-RES, 4.55 µM (inactive); in the experiment with BT-549 it was 8.32 µM (inactive); in the experiment with UACC-257 it was 13.9 µM (inactive). The GI50 with SK-OV-3 is 13.4 µM (inactive); in the experiment with U-251, 4.78 µM (inactive); in the experiment on MDA-MB-231 it was 16.2 µM (inactive); with OVCAR-5 it was 5.85 µM (inactive); with ACHN it was 3.96 µM (inactive); in the experiment with SNB-19, 5.2 µM (inactive). In addition, the GI50 was 3.72 µM (inactive) in the experiment on SF-539 and 4.15 µM (inactive) with NCI-H23.

With `NC1N=C(c2ccc(Cl)cc2)C2=C(N1)c1ccccc1CC2` (stereo not given), the GI50 was 13.4 µM (inactive) in the experiment with OVCAR-4; 4.03 µM (inactive) with KM12; 8.39 µM (inactive) with HCT-116; 3.58 µM in the experiment with HCT-15; 22.3 µM (inactive) with SF-295; 10.4 µM (inactive) in the experiment on T47D. Further, the GI50 in the experiment on PC-3 was 23.1 µM (inactive); with SW-620, 10.8 µM (inactive); in the experiment with HL-60, 2.81 µM (inactive); in the experiment with NCI/ADR-RES, 13 µM (inactive); in the experiment with BT-549, > 100 µM (inactive); in the experiment on UACC-257, > 67.3 µM (inactive). Also, the GI50 was > 100 µM (inactive) in the experiment on SK-OV-3; 25.6 µM (inactive) with U-251; 10.5 µM (inactive) in the experiment with MDA-MB-231; 51.1 µM (inactive) with OVCAR-5; > 51.2 µM (inactive) in the experiment with ACHN; > 68.5 µM (inactive) in the experiment on SNB-19. The results for the GI50 with SF-539 and with NCI-H23 were 14.6 µM (inactive) and 30 µM (inactive), respectively.

Consider `COC(=O)/C=C/c1cnc2c(c1)oc(=O)n2C`, for which the GI50 in the experiment with OVCAR-4 is > 100 µM (inactive); in the experiment on KM12 it was > 100 µM (inactive); in the experiment on HCT-116, > 100 µM (inactive); with HCT-15, above 100 µM; in the experiment with SF-295 it was > 100 µM (inactive); with T47D, > 100 µM (inactive). Besides, the GI50 in the experiment with PC-3, in the experiment with SW-620, in the experiment with HL-60, in the experiment with NCI/ADR-RES, in the experiment on BT-549 and in the experiment on UACC-257 was > 100 µM (inactive) throughout. For the same compound, the GI50 with SK-OV-3, in the experiment on U-251, in the experiment on MDA-MB-231, in the experiment on OVCAR-5, in the experiment with ACHN and in the experiment with SNB-19 was > 100 µM (inactive) throughout. Moreover, the GI50 in the experiment with SF-539 and in the experiment on NCI-H23 was > 100 µM (inactive) in each case.

Take `CC1=CC(O)C(C(O)(C(F)(F)F)C(F)(F)F)C(C)(C)C1` (stereo not given): the GI50 is > 10 µM (inactive) with OVCAR-4; > 10 µM (inactive) in the experiment with KM12; > 10 µM (inactive) in the experiment on HCT-116; above 10 µM in the experiment on HCT-15; > 10 µM (inactive) with SF-295; > 10 µM (inactive) with T47D. Besides, the GI50 with PC-3, with SW-620, with HL-60, with NCI/ADR-RES, in the experiment on BT-549 and in the experiment with UACC-257 was > 10 µM (inactive) in each case. For the same compound, the GI50 with SK-OV-3, in the experiment on U-251, in the experiment with MDA-MB-231, in the experiment with OVCAR-5, with ACHN and in the experiment on SNB-19 was > 10 µM (inactive) throughout. Besides, the GI50 in the experiment on SF-539 and with NCI-H23 was > 10 µM (inactive) throughout.

For the compound `Cc1cccc(/N=N/c2ccc(O)c(CN(C)C)c2)c1`, the GI50 was 55.3 µM (inactive) in the experiment with OVCAR-4; 13.4 µM (inactive) in the experiment with KM12; 20.5 µM (inactive) in the experiment with HCT-116; 11.2 µM in the experiment on HCT-15; 28.4 µM (inactive) in the experiment with SF-295; 11.5 µM (inactive) with T47D. Also, the GI50 in the experiment on PC-3 was 36.4 µM (inactive); with SW-620, 18.2 µM (inactive); in the experiment with HL-60 it was 23.4 µM (inactive); with NCI/ADR-RES, 16.9 µM (inactive); in the experiment on BT-549 it was 17.2 µM (inactive); in the experiment on UACC-257 it was 17.5 µM (inactive). Besides, the GI50 in the experiment on SK-OV-3 is 41.7 µM (inactive); in the experiment on U-251 it was 45.9 µM (inactive); in the experiment on MDA-MB-231 it was 5.6 µM (inactive); in the experiment on OVCAR-5, 33.8 µM (inactive); in the experiment on ACHN, 8 µM (inactive); in the experiment with SNB-19, 41.9 µM (inactive). Besides, the GI50 in the experiment on SF-539 is 18.2 µM (inactive); in the experiment with NCI-H23 it was 57.8 µM (inactive).

Take `[N-]=[N+]=Nc1c(N2CCOCC2)c(Cl)nc2ccccc12`: the GI50 in the experiment on OVCAR-4 was 33.7 µM (inactive); in the experiment with KM12 it was 27 µM (inactive); with HCT-116 it was 39.5 µM (inactive); in the experiment on HCT-15, 46.6 µM; in the experiment with SF-295, 60.5 µM (inactive); in the experiment on T47D it was 65.6 µM (inactive). Also, the GI50 is 34.2 µM (inactive) in the experiment on PC-3; 72.3 µM (inactive) in the experiment with SW-620; 66.1 µM (inactive) with HL-60; 26.4 µM (inactive) in the experiment on NCI/ADR-RES; 25.4 µM (inactive) in the experiment with BT-549; 27.9 µM (inactive) in the experiment on UACC-257. The GI50 with SK-OV-3 was > 100 µM (inactive); in the experiment with U-251, 82.6 µM (inactive); in the experiment with MDA-MB-231, 23.1 µM (inactive); with OVCAR-5, > 100 µM (inactive); in the experiment on ACHN, 39.2 µM (inactive); with SNB-19 it was > 100 µM (inactive). Also, the results for the GI50 in the experiment on SF-539 and in the experiment with NCI-H23 were 65.5 µM (inactive) and 30.7 µM (inactive), respectively.

With `Cc1cc(NS(=O)(=O)c2ccc(NC(=O)c3cccc4c(NNc5ccc(S(N)(=O)=O)cc5)c5ccccc5nc34)cc2)no1`, the GI50 in the experiment on OVCAR-4 is 31.8 µM (inactive); in the experiment on KM12, 38.1 µM (inactive); with HCT-116 it was 33.2 µM (inactive); with HCT-15, 95.1 µM; in the experiment with SF-295, 44.4 µM (inactive); with T47D, 26 µM (inactive). Also, the GI50 in the experiment on PC-3 was 33.7 µM (inactive); in the experiment with SW-620, 37.2 µM (inactive); with HL-60, 31 µM (inactive); with NCI/ADR-RES, > 100 µM (inactive); in the experiment on BT-549 it was 61.5 µM (inactive); in the experiment with UACC-257, > 100 µM (inactive). Moreover, the GI50 in the experiment with SK-OV-3 was 36.3 µM (inactive); in the experiment with U-251 it was 24 µM (inactive); with MDA-MB-231, 54.5 µM (inactive); with OVCAR-5, 39.6 µM (inactive); with ACHN, 39 µM (inactive); in the experiment with SNB-19, 60.4 µM (inactive). Further, the GI50 was > 100 µM (inactive) in the experiment on SF-539 and 64.7 µM (inactive) in the experiment with NCI-H23.

Turning to `C=C1C(OC)=C(OC)C(=O)c2[nH]c3c(OC)cc([N+](=O)[O-])cc3c21`, the GI50 was > 100 µM (inactive) in the experiment with OVCAR-4; > 100 µM (inactive) in the experiment with KM12; > 100 µM (inactive) in the experiment with HCT-116; above 100 µM with HCT-15; > 100 µM (inactive) with SF-295; > 100 µM (inactive) in the experiment on T47D. Also, the GI50 with PC-3, in the experiment with SW-620, in the experiment on HL-60, in the experiment on NCI/ADR-RES, in the experiment with BT-549 and in the experiment with UACC-257 was > 100 µM (inactive) each time. Moreover, the GI50 in the experiment with SK-OV-3, with U-251, in the experiment with MDA-MB-231, in the experiment on OVCAR-5, with ACHN and with SNB-19 was > 100 µM (inactive) each time. Moreover, the GI50 in the experiment on SF-539 and in the experiment on NCI-H23 was > 100 µM (inactive) in each case.

For the compound `NC(=O)c1c[se]c(C2OC(CO)C(O)C2O)n1` (stereo not given), the GI50 in the experiment with OVCAR-4 is 3.99 µM (inactive); with KM12, 0.57 µM (active); with HCT-116, 3.45 µM (inactive); in the experiment with HCT-15, 0.537 µM; in the experiment on SF-295, 2.39 µM (inactive); in the experiment on T47D, > 100 µM (inactive). The GI50 was 1.44 µM (inactive) in the experiment on PC-3; 1.47 µM (inactive) with SW-620; 0.984 µM (active) in the experiment with HL-60; 9.16 µM (inactive) in the experiment on NCI/ADR-RES; 8.09 µM (inactive) in the experiment with BT-549; > 100 µM (inactive) in the experiment with UACC-257. Besides, the GI50 in the experiment with SK-OV-3 was > 29 µM (inactive); in the experiment on U-251, 0.953 µM (active); with MDA-MB-231, 5.01 µM (inactive); in the experiment on OVCAR-5, 31 µM (inactive); with ACHN, 5.94 µM (inactive); in the experiment on SNB-19, 6.35 µM (inactive). Besides, the results for the GI50 in the experiment on SF-539 and with NCI-H23 were 2.43 µM (inactive) and 11 µM (inactive), respectively.

For the origin of these results see ChEMBL document CHEMBL1201862, “PubChem BioAssay data set” (2004).
